Measurements from the supplement of paper PMC4862054.
Several values for one entry are separate records, joined by “and”; a condition that tells them apart may be missing. Equal values may be shown once.

Tests used:
Assay in all cases: normalised viability (% of control), CellTiter-Blue; higher = more viable cells (about 100 = DMSO control)
Conditions in all cases: incubation time: 72 h
CAL-148 [1] = system: CAL-148
Method: (§1)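 DSRT, CellTiter-Blue viability, 72 h incubation. Signal is normalised to DMSO and benzethonium chloride controls. Value is the normalised response at dose 8.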

CAL-51 [2] = system: CAL-51
Method: as §1

CAL-85-1 [3] = system: CAL-85-1
Method: as §1

DU-4475 [4] = system: DU-4475
Method: as §1

HDQ-P1 = system: HDQ-P1
Method: as §1

MDA-MB-453 [5] = system: MDA-MB-453
Method: as §1

CAL-148 [6] = system: CAL-148; remark: listed apart in the source
Method: (§2)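 DSRT, CellTiter-Blue viability, 72 h incubation. Signal is normalised to DMSO and benzethonium chloride controls. Value is the normalised response at dose 6.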

CAL-51 [7] = system: CAL-51; remark: listed apart in the source
Method: as §2

CAL-85-1 [8] = system: CAL-85-1; remark: listed apart in the source
Method: as §2

DU-4475 [9] = system: DU-4475; remark: listed apart in the source
Method: as §2

MDA-MB-453 [10] = system: MDA-MB-453; remark: listed apart in the source
Method: as §2

CAL-148 [11] = system: CAL-148; remark: listed apart in the source
Method: (§3)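 DSRT, CellTiter-Blue viability, 72 h incubation. Signal is normalised to DMSO and benzethonium chloride controls. Value is the normalised response at dose 9.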

CAL-51 [12] = system: CAL-51; remark: listed apart in the source
Method: as §3

CAL-85-1 [13] = system: CAL-85-1; remark: listed apart in the source
Method: as §3

DU-4475 [14] = system: DU-4475; remark: listed apart in the source
Method: as §3

MDA-MB-453 [15] = system: MDA-MB-453; remark: listed apart in the source
Method: as §3

Structure (SMILES)	normalised viability (CAL-148 [1])	normalised viability (CAL-51 [2])	normalised viability (CAL-85-1 [3])	normalised viability (DU-4475 [4])	normalised viability (HDQ-P1)	normalised viability (MDA-MB-453 [5])	normalised viability (CAL-148 [6])	normalised viability (CAL-51 [7])	normalised viability (CAL-85-1 [8])	normalised viability (DU-4475 [9])	normalised viability (MDA-MB-453 [10])	normalised viability (CAL-148 [11])	normalised viability (CAL-51 [12])	normalised viability (CAL-85-1 [13])	normalised viability (DU-4475 [14])	normalised viability (MDA-MB-453 [15])
O=c1[nH]cc(F)c(=O)[nH]1 [Fluorouracil] (3000 nM)	65.6%	87.9%	62.6%	81.6%	87.8%	85.7%										
C[C@@H]1C=C2C(=O)O[C@@H]3CC[C@H](C1)[C@]23O [Galiellalactone] (15000 nM)	52.8%	124%	14.1%	126%	75.3%	20.3%										
COC1=C2C[C@@H](C)C[C@H](OC)[C@H](O)[C@@H](C)/C=C(\C)[C@H](OC(N)=O)[C@@H](OC)/C=C\C=C(/C)C(=O)NC(=CC1=O)C2=O [Geldanamycin] (3000 nM)	10.8%	8.15%	11.6%	-0.3%	16.7%	8.03%										
O=P(O)(NCCCl)NCCCl [Ifosfamide mustard] (3000 nM)	100%	108%	96.5%	104%	106%	114%										
CS(=O)(=O)CCNCc1ccc(-c2ccc3ncnc(Nc4ccc(OCc5cccc(F)c5)c(Cl)c4)c3c2)o1 [Lapatinib] (300 nM)							87.1% and 91.6%	112% and 98.5%	89.5% and 86.2%	87.4% and 108%	42.9% and 43.1%					
CS(=O)(=O)CCNCc1ccc(-c2ccc3ncnc(Nc4ccc(OCc5cccc(F)c5)c(Cl)c4)c3c2)o1 [Lapatinib] (3000 nM)	80.7% and 87.1%	107% and 96.5%	52.1% and 54.6%	117% and 105%	84.5% and 104%	33.4% and 38.4%										
CS(=O)(=O)CCNCc1ccc(-c2ccc3ncnc(Nc4ccc(OCc5cccc(F)c5)c(Cl)c4)c3c2)o1 [Lapatinib] (10000 nM)												60.4% and 65.6%	90% and 94.5%	30% and 39.3%	117% and 99.2%	20.9% and 28.7%
Cn1cnc2c(F)c(Nc3ccc(Br)cc3F)c(C(=O)NOCCO)cc21 [MEK-162] (300 nM)	87.1%	90%	86.7%	4.15%	95.6%	136%										
CCOc1cc2ncc(C#N)c(Nc3ccc(OCc4ccccn4)c(Cl)c3)c2cc1NC(=O)/C=C/CN(C)C [Neratinib] (300 nM)	101%	88%	121%	87.2%	122%	79.9%										
COc1ccc(C2=N[C@@H](c3ccc(Cl)cc3)[C@@H](c3ccc(Cl)cc3)N2C(=O)N2CCNC(=O)C2)c(OC(C)C)c1 [Nutlin-3] (3000 nM)	72.6%	73%	101%	67.5%	120%	83.9%										
COC1=CC(c2cc3ccccc3[nH]2)=N/C1=C\c1[nH]c(C)cc1C [Obatoclax] (3000 nM)	59.6%	38.5%	31.2%	78.5%	39.3%	33.4%										
COC(=O)C[C@](O)(CCCC(C)(C)O)C(=O)O[C@@H]1C(OC)=C[C@]23CCCN2CCc2cc4c(cc2[C@H]13)OCO4 [Omacetaxine mepesuccinate] (3000 nM)	5.63%	5.99%	2%	3.79%	13.4%	5.64%										
CC(=O)O[C@H]1C(=O)[C@@]2(C)[C@H]([C@H](OC(=O)c3ccccc3)[C@]3(O)C[C@H](OC(=O)[C@H](O)[C@@H](NC(=O)c4ccccc4)c4ccccc4)C(C)=C1C3(C)C)[C@]1(OC(C)=O)CO[C@@H]1C[C@@H]2O [Paclitaxel] (300 nM)	16.1%	20.6%	25.5%	16.9%	26.6%	24.7%										
CC(C)(C)c1cc(NC(=O)Nc2ccc(-c3cn4c(n3)sc3cc(OCCN5CCOCC5)ccc34)cc2)no1 [Quizartinib] (300 nM)	102%	102%	106%	98.5%	103%	110%										
COc1cc(Nc2ncc(F)c(Nc3ccc4c(n3)NC(=O)C(C)(C)O4)n2)cc(OC)c1OC [R406] (3000 nM)	105%	109%	67.9%	92.6%	98.3%	110%										
O=C(c1ccc(OCCN2CCCCC2)cc1)c1c(-c2ccc(O)cc2)sc2cc(O)ccc12 [Raloxifene] (3000 nM)	109%	101%	94.3%	121%	89.1%	91.9%										
Cn1c(=O)c(F)c(Nc2ccc(I)cc2F)c2c(=O)n(C[C@@H](O)CO)cnc21 [TAK-733] (300 nM)	77.9%	76.7%	53.5%	0.88%	63.6%	70.8%										
CCS(=O)(=O)c1cccc(-c2cc(C(=O)NC3CCN(C)CC3)c(C)c3[nH]c4ncc(C)cc4c23)c1 [TAK-901] (300 nM)	74%	42.5%	53.2%	76.5%	49.2%	60%										
c1ccc(C2CN3CCSC3=N2)cc1 (stereo not drawn) [Tetramisole] (3000 nM)	109%	101%	93.5%	95.4%	101%	116%										
CCCC(CCC)C(=O)O [Valproic acid] (3000 nM)	104%	103%	90%	88%	112%	103%										
